How the values were obtained:
Type in all cases: cell-based
Hela cells = test: Cell viability assay (WST-1), Hela cells; details: Homo sapiens, HeLa, WST-1, 48-72 hrs, 0.5% fetal calf serum
Procedure: Jurkat and Hela cells were cultured in RPMI and EMEM media, respectively, containing 0.5% fetal calf serum. Cells were plated in a volume of 100 μL in a 96 well format. Test compounds were included in the culture media at concentrations ranging from 1 nM to 10 μM for a period of 48-72 hrs. Cell viability was determined using the WST-1 calorimetric mitochondrial reduction assay. Briefly, 10 μL of WST-1 reagent was included in the culture well for a period of 1 to 4 hrs. The WST-1 reaction was read on a multiwell spectrophotometer as the difference in the absorbance between 450 nm and 600 nm (baseline). Absorbance was proportional to the number of living cells in the culture well. Concentration response curves and IC50 values were calculated using GraphPAD Prism graphing and curve fitting program.

[1] = test system: Jurkat T-cell leukemic cells; test: Cell cycle assay (Example 163), G2/M block in Jurkat cells; details: Homo sapiens, Jurkat, 24 h, flow cytometry (PI), Table 2
Procedure: (§1) MCF-7 breast cancer cells and Jurkat T-cell leukemic cells were grown (and maintained) in EMEM and RPMI media, respectively, containing 10% fetal calf serum.
Test agents were added a concentration of 0.1 μM. Twenty-fours after test agent addition, cells were analyzed for cell cycle status as described below.
(§2) Cell cycle status was analyzed by flow cytometry. Briefly, cells were collected and washed with FACs buffer (Pharmingen) and resuspended and fixed in 1 mL of 80% ethanol for 1 hr. Cells were washed with FACs buffer and resuspended in propidium iodide(PI)/RNase staining buffer (Pharmingen). PI is a fluorescent dye that labels nucleic acids such as DNA. The fluorescence within a cell (in the presence of PI) is proportional to the amount of DNA within a cell. The cell content of DNA is an indices of status in the cell cycle. […] Cells in the S phase have DNA content that lies between these extremes.
(§3) For testing of cell cycle effects of test agents the percentage of cells within the G1 and G2/M phase were measured.

[2] = test system: MCF-7 breast cancer cells; test: Cell cycle assay (Example 163), G2/M block in MCF-7 cells; details: Homo sapiens, MCF7, 24 h, flow cytometry (PI), Table 2
Procedure: as §1
(§4) Cells were allowed to adhere for 24 hrs. After adherence, cell culture media was changed to that containing 0.5% FCS. Thirty minutes post-media change, test compounds were added at a concentration of 1 μM. Twenty-fours after test agent addition, cells were analyzed for cell cycle status as described below.
as §2, §3

[3] = test system: MCF-7 breast cancer cells; test: Cell cycle assay (Example 164), G2/M block in MCF-7 cells; details: for activation at 0.1 µM / IC50: Homo sapiens, MCF7; for activation at 0.1 µM / MCF-7 G2/M Block 1 μM: 24 h, flow cytometry (PI); for activation at 0.1 µM: Table 4; for IC50: MCF-7, footnotes * and ** of Table 4, read-out: IC50 (footnote mark in column MCF-7 G2/M Block); for MCF-7 G2/M Block 1 μM: Table 3
Procedure: (§5) The adherent MCF-7 breast cancer cells and NCI-H522 non small cell lung cancer cells were grown and maintained in EMEM cell culture media containing 10% fetal calf serum.
as §4, with “either 1.0 or 0.1 μM (as specified in the Tables). Twenty-four hours” for “1 μM. Twenty-fours”
as §2, with “indicator” for “indices”
as §3

[4] = test system: NCI-H522 non small cell lung cancer cells; test: Cell cycle assay (Example 164), G2/M block in NCI-H522 cells; details: Homo sapiens; for activation at 0.1 µM: 24 h, flow cytometry (PI); for IC50: H522, footnotes * and ** of Table 4, read-out: IC50 (footnote mark in H522 G2/M Block)
Procedure: as §5
as §4, with “either 1.0 or 0.1 μM (as specified in the Tables). Twenty-four hours” for “1 μM. Twenty-fours”
as §2, with “indicator” for “indices”
as §3

Row | SMILES | activation at 0.1 µM [3] | activation at 0.1 µM ([4]; Table 4) | also measured
1 | N#Cc1ccc2c(ccn2-c2cc(O)cc(Nc3cccnc3)c2)c1 [1-[3-Hydroxy-5-(pyridin-3-ylamino)-phenyl]-1H-indole-5-carbonitrile] | – | – | IC50 (Hela cells): 1 to 30 µM; activation at 0.1 µM [1]: ≥ 50%; activation at 1 µM [2]: < 50%
2 | O=C(c1cccnc1)c1cc(O)cc(-c2cccc3[nH]cc(C(=O)C(F)(F)F)c23)c1 [2,2,2-Trifluoro-1-{4-[3-hydroxy-5-(pyridine-3-carbonyl)-phenyl]-1H-indol-3-yl}-ethanone] | – | – | IC50 (Hela cells): 1 to 30 µM; activation at 0.1 µM [1]: < 50%; activation at 1 µM [2]: < 50%
3 | O=[N+]([O-])c1ccc2ccn(-c3cc(O)cc(Nc4cccnc4)c3)c2c1 [3-(6-Nitro-indol-1-yl)-5-(pyridin-3-ylamino)-phenol] | – | – | IC50 (Hela cells): 0.001 to 0.999 µM; activation at 0.1 µM [1]: ≥ 50%
4 | Oc1cc(Nc2cccnc2)cc(-c2ccc3c(c2)CCC3)c1 [3-Indan-5-yl-5-(pyridin-3-ylamino)-phenol] | – | – | IC50 (Hela cells): 1 to 30 µM
5 | Oc1cc(Nc2cccnc2)cc(-c2cccc(-c3ccccc3)c2)c1 [5-(Pyridin-3-ylamino)-[1,1′;3′,1″]terphenyl-3-ol] | – | – | IC50 (Hela cells): 1 to 30 µM
6 | Oc1cc(-c2cccc3[nH]ccc23)nc(Nc2cccnc2)n1 [6-(1H-Indol-4-yl)-2-(pyridin-3-ylamino)-pyrimidin-4-ol] | – | – | IC50 (Hela cells): 1 to 30 µM; activation at 0.1 µM [1]: ≥ 50%
7 | Cc1cccc(-c2cc(NS(C)(=O)=O)cc(-c3cccc4[nH]ccc34)c2)c1 [N-[5-(1H-Indol-4-yl)-3′-methyl-biphenyl-3-yl]-methanesulfonamide] | ≥ 50% | ≥ 50% | –
8 | CC(=O)Nc1cc(-c2ccc(C(F)(F)F)cc2)cc(-c2cccc3[nH]ccc23)c1 [N-[5-(1H-Indol-4-yl)-4′-trifluoromethyl-biphenyl-3-yl]-acetamide] | < 50% | < 50% | IC50 [3]: 0.1 to 1 µM; IC50 [4]: 0.1 to 1 µM
9 | CS(=O)(=O)Nc1cc(-c2cccc([N+](=O)[O-])c2)cc(-c2cccc3[nH]ccc23)c1 [N-[5-(1H-indol-4-yl)-3′-nitro-biphenyl-3-yl]-methanesulfonamide] | ≥ 50% | ≥ 50% | –
10 | CS(=O)(=O)Nc1cc(-c2cccc(C(F)(F)F)c2)cc(-c2cccc3[nH]ccc23)c1 [N-[5-(1H-indol-4-yl)-3′-trifluoromethyl-biphenyl-3-yl]-methanesulfonamide] | ≥ 50% | ≥ 50% | –
11 | Nc1ccc(-c2cccc3[nH]ccc23)cc1C(=O)c1cccnc1 [[2-Amino-5-(1H-indol-4-yl)-phenyl]-pyridin-3-yl-methanone] | – | – | MCF-7 G2/M Block 1 μM [3]: Y (Y indicates a 50% or greater increase in the number of cells in the G2/M phase, as compared to control); activation at 0.1 µM ([4]; Table 3): ≥ 50%
12 | COC(=O)Nc1cc(C(=O)c2ccnc(OC)c2)cc(-c2cccc3[nH]ccc23)c1 [[3-(1H-Indol-4-yl)-5-(2-methoxy-pyridine-4-carbonyl)-phenyl]-carbamic acid methyl ester] | ≥ 50% | < 50% | –
13 | COC(=O)Nc1cc(C(=O)c2cc(C)nc(N3CCOCC3)c2)cc(-c2cccc3[nH]ccc23)c1 [[3-(1H-Indol-4-yl)-5-(2-methyl-6-morpholin-4-yl-pyridine-4-carbonyl)-phenyl]-carbamic acid methyl ester] | ≥ 50% | ≥ 50% | –
14 | COC(=O)Nc1cc(C(=O)c2ccnc(C)c2)cc(-c2cccc3[nH]ccc23)c1 [[3-(1H-Indol-4-yl)-5-(2-methyl-pyridine-4-carbonyl)-phenyl]-carbamic acid methyl ester] | < 50% | ≥ 50% | –
15 | COC(=O)Nc1cc(C(=O)c2ccnc(N3CCOCC3)c2)cc(-c2cccc3[nH]ccc23)c1 [[3-(1H-Indol-4-yl)-5-(2-morpholin-4-yl-pyridine-4-carbonyl)-phenyl]-carbamic acid methyl ester] | ≥ 50% | ≥ 50% | –
16 | COC(=O)Nc1cc(-c2ccc(OC)nc2)cc(-c2cccc3[nH]ccc23)c1 [[3-(1H-Indol-4-yl)-5-(6-methoxy-pyridin-3-yl)-phenyl]-carbamic acid methyl ester] | < 50% | ≥ 50% | IC50 [3]: 0.1 to 1 µM
17 | COC(=O)Nc1cc(-c2cccnc2)cc(-c2cccc3[nH]ccc23)c1 [[3-(1H-Indol-4-yl)-5-pyridin-3-yl-phenyl]-carbamic acid methyl ester] | < 50% | ≥ 50% | –
18 | COC(=O)Nc1cc(-c2ccncc2)cc(-c2cccc3[nH]ccc23)c1 [[3-(1H-Indol-4-yl)-5-pyridin-4-yl-phenyl]-carbamic acid methyl ester] | ≥ 50% | ≥ 50% | –
19 | COC(=O)Nc1cc(C(=O)c2cc(C)nc(C)c2)cc(-c2cccc3[nH]ccc23)c1 [[3-(2,6-Dimethyl-pyridine-4-carbonyl)-5-(1H-indol-4-yl)-phenyl]-carbamic acid methyl ester] | ≥ 50% | ≥ 50% | –
20 | COC(=O)Nc1cc(C(=O)c2ccnc(Cl)c2)cc(-c2cccc3[nH]ccc23)c1 [[3-(2-Chloro-pyridine-4-carbonyl)-5-(1H-indol-4-yl)-phenyl]-carbamic acid methyl ester] | < 50% | < 50% | IC50 [3]: 0.5 to 5 µM
21 | COC(=O)Nc1cc(C(=O)c2cc(C)nc(C#N)c2)cc(-c2cccc3[nH]ccc23)c1 [[3-(2-Cyano-6-methyl-pyridine-4-carbonyl)-5-(1H-indol-4-yl)-phenyl]-carbamic acid methyl ester] | ≥ 50% | ≥ 50% | –
22 | COC(=O)Nc1cc(C(=O)c2cc(C)nc(N(C)C)c2)cc(-c2cccc3[nH]ccc23)c1 [[3-(2-Dimethylamino-6-methyl-pyridine-4-carbonyl)-5-(1H-indol-4-yl)-phenyl]-carbamic acid methyl ester] | ≥ 50% | ≥ 50% | –
23 | COC(=O)Nc1cc(Nc2ccc(C#N)nc2)cc(-c2cccc3[nH]ccc23)c1 [[3-(6-Cyano-pyridin-3-ylamino)-5-(1H-indol-4-yl)-phenyl]-carbamic acid methyl ester] | – | – | MCF-7 G2/M Block 1 μM [3]: Y (Y indicates a 50% or greater increase in the number of cells in the G2/M phase, as compared to control); activation at 0.1 µM ([4]; Table 3): < 50%
24 | COC(=O)Nc1cc(C(=O)c2cccnc2)cc(-c2ccc(F)c3[nH]ccc23)c1 [[3-(7-Fluoro-1H-indol-4-yl)-5-(pyridine-3-carbonyl)-phenyl]-carbamic acid methyl ester] | ≥ 50% | ≥ 50% | –
25 | COC(=O)Nc1cc(C(=O)c2ccnc(OC)c2)cc(-c2cccc3occc23)c1 [[3-Benzofuran-4-yl-5-(2-methoxy-pyridine-4-carbonyl)-phenyl]-carbamic acid methyl ester] | < 50% | < 50% | IC50 [3]: 0.5 to 5 µM; IC50 [4]: 0.5 to 5 µM
26 | COC(=O)Nc1cc(-c2nc3ccccc3o2)cc(-c2cccc3[nH]ccc23)c1 [[3-Benzoxazol-2-yl-5-(1H-indol-4-yl)-phenyl]-carbamic acid methyl ester] | ≥ 50% | ≥ 50% | –
27 | CN(C)c1cc(C(=O)c2ccnc(N(C)C)c2)cc(-c2cccc3[nH]ccc23)c1 [[3-Dimethylamino-5-(1H-indol-4-yl)-phenyl]-(2-dimethylamino-pyridin-4-yl)-methanone] | < 50% | ≥ 50% | –

From patent US20080280891A1, “Anti-cancer agents and uses thereof” (Locus Pharmaceuticals, Inc., priority 2006, published 2008)
